Measurements published in patent US10335364B2, “Composition for topical application comprising glycerol and tannins” (priority 2013, dated 2019).

Tests used:
[1] = tested on: human multilayered epidermis; experiment: Glycerol film retention on in vitro human multilayered epidermis (MTT cell viability); type: cell-based
Procedure: In the absence of any specific in vivo model to study the duration of the film retention by a biological surface, an in vitro model of human multilayered epidermis was used to evaluate the effects of the addition of non-cytotoxic concentrations of different PCD-rich plant extracts, either singly or in different associations, on glycerol film retention. Human epidermis was grown on a permeable polycarbonate filter (1 cm diameter) and was kept on a sponge soaked with culture medium, its outer surface remaining in contact with air, as is the case in vivo. Through capillary action, the culture medium diffuses through the polycarbonate filter and supplies nourishment to the epidermal cells to keep those cells alive.
Inserting one or two additional polycarbonate filters increases the distance between the culture medium and the cells; the amount of available medium, which reaches the cells, then decreases, and in absence of nutrients and hydration, the cells die. […] The percentage of live cells is proportional to the duration of retention of the glycerol film by the epidermal surface.
Various glycerol preparations containing test products (mainly PCD-rich plant extracts), at concentrations varying between 0.1 and 5.0%.
Quantity of Test Product Applied Per Epidermis: 20 μl
Glycerol preparations were directly applied on the epidermis as thin layer with the help of a pipette (n=6 per concentration): the epidermis was placed on two filters and the test product was applied on the epidermis surface. The filters were kept on a sponge, which was inserted in a petri dish containing an appropriate quantity of medium to nourish the cells. […]
The cell viability was scored as follows: • Score 4: 100% cells (compared to the controls) with intense blue color. • 3: Approximately 75% live cells with dark blue color. • 2: Approximately 50% live cells with medium blue color. • 1: Approximately 25% live cells with light blue color. • 0: No live cells, whitish epidermis color. […]

[2] = tested on: human epidermis (normal human epithelial cells); experiment: In vitro osmotic/hydrating properties on dehydrated human epidermis culture; type: cell-based; conditions: 20 μl, day 7, filmogen glycerol = preparation n° 2 in Example 5 (Orosol)
Excerpt: In the absence of in vivo models to mimic the osmotic exudation of hypotonic liquid from the oral or vaginal mucosa, a cell culture model of human epidermis was used which contains normal human epithelial cells grown on a polycarbonate filter in an air/liquid phase. Under optimal conditions, a multilayered cell culture, equivalent to the mucosal surface is obtained on a polycarbonate support. This support is placed on a sponge in contact with a defined amount of culture medium. The medium diffuses into the sponge and the filter, and supplies nutrients as well as hydration to the cells. Under these conditions, the cell culture can be kept alive for at least a week.
To create an experimental model of mucosa dryness, we inserted one or two extra filters between the cells and the sponge, thereby reducing the amount of liquid medium available to the cells. In absence of hydration, cells die, and the cell mortality can be measured with a vital dye MU. Cell mortality is proportional to the culture surface's dryness. […]
The aim of this study was to evaluate the hydrating properties of filmogen glycerol compared to regular glycerol. […] Each epidermis was washed by stirring the culture in culture medium for 20 seconds on days 1, 3 and 5, and cell viability was measured on day 7 using MU staining.

[3] = tested on: free virus particles present on the surface of labial herpes lesions; experiment: Clinical study 3: free virus particles on labial herpes lesions (Tzank test); type: in vivo, human (patients); conditions: labial lesion smears, twice daily application
Procedure: Labial lesion smears were collected and mean virus concentration was measured by quantifying the number of multinucleated virus-infected giant cells in each lesion using Tzank test, and the mean amount of free virus particles was determined in both groups.

[4] = Osmolality and osmotic pressure of glycerol and seawater; type: physicochemical; conditions: pure glycerol
Excerpt: An injured skin or mucosa acts as a semi-permeable membrane and allows osmosis to occur. The flow of solvents across a semi-permeable membrane constitutes the osmotic flow or osmosis. The pressure required to achieve osmotic equilibrium is known as osmotic pressure. The higher the concentration of a […], the more osmotic pressure it exerts. Fresh water is considered isotonic with a density of 1000 kg/m^3. […] Osmotic pressure exerted by glycerol is nearly 10 times higher compared to seawater. The solute concentration of glycerol is also much higher compared to seawater. It is the total solute concentration in a solution that determines the osmotic flow of liquid, as osmosis is driven by differences in solute/solvent concentrations that exist across a semi-permeable membrane. The total solute concentration can be determined through the osmolality of the solution. […] Therefore, glycerol could have been a product of choice for application on infected surfaces in order to generate osmotic outflow of hypotonic liquid and to clean the injury. Unfortunately, the exudating hypotonic liquid immediately dilutes the glycerol and drains it from the wound surface within a few minutes, limiting these cleaning effects.

[5] = seawater containing […] NaCl; pure glycerol; cited from earlier work
rat dorsal skin lesions = experiment: In vivo rat wound healing; conditions: 0.2 ml per lesion for 7 consecutive days, filmogen glycerol as per the example N° 6
Procedure: The rat dorsal skin was shaved and 3 circular lesions, […] in diameter and depth, were made to the hypodermis with a dermatome. 0.2 ml of each test product was applied on each lesion for 7 consecutive days. Lesion diameter was measured every day and mean values were compared.

[6] = tested on: nasal sinus infection (rhinosinusitis); experiment: Clinical study 4: rhinosinusitis; type: in vivo, human (patients)
Procedure: A 21-day controlled clinical trial of G-PCD compared to glycerol alone in patients suffering from acute symptoms of nasal sinus infection was performed.
The aim of this study was to evaluate the sinus-opening efficacy of G-PCD solution (32% glycerol, 1% plant PCDs in water) as per the example N° 5, compared to glycerol alone (32% glycerol in water). Among 127 patients suffering from acute and chronic sinusitis 109 were selected for the study. 58 patients were treated with G-PCD and 51 with glycerol. Products were administered as sprays (3 at each treatment application), 2-3 times per day for a maximum period of 21 days.
The parameters studied were: 1. Effect on nasal congestion and runny nose; 2. Effect on pain upon pressure around the nasal sinus surface; 3. Overall condition of the patient with respect to sinus infection; and 4. The influence on antibiotic therapy. […] Only 21% patients in the G-PCD group required antibiotic therapy for an average 7.41 days compared to 40% in the glycerol group for a period of 10.5 days (FIG. 8)

diabetic ulcers = conditions: human, in vivo
Procedure: Samples of wound fluid (100 μl) were collected at hourly intervals over a 6 h period, and the quantity of glycerol was measured.

[7] = spray 2-3 times per day, glycerol = 32% glycerol in water

For OCC(O)CO [glycerol], the “cell survival % after 72 h” value ([1]; 20 μl on epidermis placed on two filters, 37° C., 5% CO2, 72 h, MTT) was 23.85 (±4.8) %, the “higher cell survival compared to the positive controls” value ([1]; 72 h, positive controls without product 6.32%) was 17.53% and the “cells die within 72 h” value ([1]; glycerol control, free of any PCD extract) was 60-70%. For the same molecule, the “Mean score of cell survival after 1-week culture, partially dehydrated cultures” value ([2]; 1 extra filter) was 62.3%, the “Mean score of cell survival after 1-week culture, severely dehydrated cultures” value ([2]; 2 extra filters) was 43.15% and the “mean amount of free virus particles, day 1” value [3] was greater than 750. For the same molecule, the “mean amount of free virus particles, day 4” value [3] was 635 (±17.51), the “mean amount of free virus particles, day 7” value [3] was 542 (±22.35.) and the “mean amount of free virus particles, day 14” value [3] was 522 (±13.50). The “osmotic activity compared to seawater” value [4] was roughly 18 times, the “osmolality (total solute/mol wt/kg)” value [5] was 10.86 mols/kg and the “Mean lesion size (diameter/day/lesion during 7 days)” value (rat dorsal skin lesions) was 2.95 cm^2. For the same molecule, the “patients requiring antibiotic therapy” value ([6]; 21-day trial) was 40%, the “average duration of antibiotic therapy” value ([6]; patients who required antibiotics) was 10.5 days and the “nasal congestion symptom change after 30 minutes” value [6, 7] was −20.40%. The “nasal congestion symptom change after 3 days” value [6, 7] was −19.09%, the “nasal congestion symptom change after 7 days” value [6, 7] was −30.25% and the “overall rhinosinusitis condition change after 30 minutes” value [6, 7] was −22.56%. The “overall rhinosinusitis condition change after 3 days” value [6, 7] was “+3.52%”, the “overall rhinosinusitis condition change after 7 days” value [6, 7] was −17.62% and the “sinus pain symptom change after 30 minutes” value [6, 7] was −1.69%. For the same molecule, the “sinus pain symptom change after 3 days” value [6, 7] was −8.36%, the “sinus pain symptom change after 7 days” value [6, 7] was −53.36% and the “increase in intensity of runny nose” value ([6]; within 30 minutes of first product administration) was 31.71%. The “glycerol eliminated from the wound within 1 hour” value (diabetic ulcers; 1 h) was roughly 92% and the “glycerol eliminated from the wound within 2 hours” value (diabetic ulcers; 2 h) was 100%.
